Structures can show the parent of a compound that is named as a salt.
Assays:
[1] = system: dopamine D2 receptor; experiment: Affinity for the dopamine D2 receptor: [3H]-spiperidone binding in homogenized limbic brain tissue; settings: ratio of IC50 D2 Spiper to IC50 D2 Quin. (LowAg/HighAg)
Experimental: High affinity for the dopamine D2 receptor was established by the standard pharmacological test procedure of Fields, et al., Brain Res., 136, […] (1977) and Yamamura et al., ed., Neurotransmitter Receptor Binding, Raven Press, N.Y. (1978) wherein homogenized limbic brain tissue is incubated with [^3H]-spiperidone at various concentrations of test compound, filtered washed, and shaken with Hydrofluor scintillation cocktail (National Diagnostics) and counted in a Packard 460 CD scintillation counter.

[2] = molecular target: T1, dopamine autoreceptor (D2 Quin.) (Rattus norvegicus, UniProt P61169); experiment: Affinity for the dopamine autoreceptor: [3H]-quinpirole binding in homogenized rat striatal brain tissue; settings: rat striatal brain tissue (high-affinity agonist state)
T1 construct: from tissue; host or cells: rat striatal brain tissue homogenate
T1 sequence (P61169 whole entry): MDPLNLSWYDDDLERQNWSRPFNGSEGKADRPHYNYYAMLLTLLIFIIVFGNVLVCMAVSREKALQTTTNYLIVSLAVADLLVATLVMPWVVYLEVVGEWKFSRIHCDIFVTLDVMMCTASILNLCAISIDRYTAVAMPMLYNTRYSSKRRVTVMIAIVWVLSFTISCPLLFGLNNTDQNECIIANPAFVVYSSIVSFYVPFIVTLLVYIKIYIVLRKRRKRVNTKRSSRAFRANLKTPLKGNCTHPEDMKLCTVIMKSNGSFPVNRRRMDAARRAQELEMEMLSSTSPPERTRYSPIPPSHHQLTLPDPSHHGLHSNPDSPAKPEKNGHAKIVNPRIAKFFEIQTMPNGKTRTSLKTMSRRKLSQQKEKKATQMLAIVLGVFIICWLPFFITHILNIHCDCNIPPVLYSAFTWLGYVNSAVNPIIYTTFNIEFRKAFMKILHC
Experimental: Affinity for the dopamine autoreceptor was established by a modification of the standard pharmacological test procedure of Seemen and Schaus, European Journal of Pharmacology 203: 105-109, 1991, wherein homogenized rat striatal brain tissue is incubated with [^3H]-quinpirole (Quin.) at various concentrations of test compound, filtered, washed and counted in a Betaplate scintillation counter.

SMILES	melting point [°C]	Ratio antagonist [1]	IC50 [2] [nM]
O=C1Nc2cccc(N3CCN(Cc4ccccc4)CC3)c2C1=O (as salt: fumarate) (hydrate or solvate) [Example V, 4-(4-Benzyl-piperazin-1-yl)-1H-indole-2,3-dione]	118 to 120	–	–
O=C1Nc2cccc(N3CCN(Cc4ccccc4)CC3)c2C1=O [Example V, 4-(4-Benzyl-piperazin-1-yl)-1H-indole-2,3-dione]	–	149	0.57 ± 0.2
